Experimental data: article PMC8050083, “Naturally-occurring spinosyn A and its derivatives function as argininosuccinate synthase activator and tumor inhibitor” (Nature Communications, 2021)
Read-outs that look alike come from different tables or passages of the source.

Legend:
[1] = target: T1, Argininosuccinate synthase (ASS1) (Homo sapiens, UniProt P00966); experiment: SPR (BIAcore X100); also LC-MS/MS of Cys97 adduct, competition with Biotin-SPA, enzyme activation (AC50 […]); format: binding
T1 construct: recombinant human ASS1, N-terminal 6×His tag (pET28a), NM_000050
T1 sequence (P00966 1-412): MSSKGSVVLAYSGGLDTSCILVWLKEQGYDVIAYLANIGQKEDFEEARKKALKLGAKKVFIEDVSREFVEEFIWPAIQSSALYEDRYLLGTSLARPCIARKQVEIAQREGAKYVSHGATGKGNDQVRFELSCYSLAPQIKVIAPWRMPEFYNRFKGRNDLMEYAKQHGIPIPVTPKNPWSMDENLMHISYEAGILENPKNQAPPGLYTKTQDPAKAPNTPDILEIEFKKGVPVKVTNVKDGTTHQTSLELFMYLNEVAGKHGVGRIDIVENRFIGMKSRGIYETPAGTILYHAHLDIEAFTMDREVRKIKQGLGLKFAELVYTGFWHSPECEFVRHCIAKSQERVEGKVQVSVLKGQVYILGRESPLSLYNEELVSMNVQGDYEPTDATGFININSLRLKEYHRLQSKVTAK

BT20 = experiment: cells; parameters: crystal violet staining viability/proliferation assay, IC50 (SPSS), LM-2I on breast cancer and normal breast epithelial lines; conditions: Homo sapiens, BT-20; mean of 3 repeats
Experimental: (§1) Fig. 1 SPA and its derivative LM-2I inhibit breast cancer proliferation and growth. a Chemical structures of SPA (1). b Crystal violet assay for the effects of SPA on breast cancer cell proliferation. IC50 values were calculated with SPSS 18.0 (mean ± s.d., n = 3 biologically independent experiments). c Representative microscope images of colony formation for different breast cancer cell lines treated with SPA. Scale bars are […]. d Chemical structures of LM-2I (2). e Crystal violet assay for the effects of LM-2I on breast cancer cell proliferation. IC50 values were calculated with SPSS 18.0 (mean ± s.d., n = 3 biologically independent experiments). f Representative microscope images of colony formation for different breast cancer cell lines treated with LM-2I. Scale bars are […]. MDA-MB-231 cells were inoculated subcutaneously into the right flank of nu/nu female mice. When the average tumor size reached about 100 mm^3, mice were treated with ether vehicle, SPA (10 mg/kg/day) or LM-2I (5 mg/kg/day). Tumor sizes (g) and mouse body weight (i) were measured every 2 days. 28 days later, mice were sacrificed and tumors were dissected and weighted (h). Data represent mean ± s.d. (n = 8 mice per group). *P < 0.05, ***P < 0.001, NS: not significant (P > 0.05) from two-tailed unpaired Student’s t tests.Source data are provided as a Source Data file. All cell lines were purchased from American Type Culture Collection (ATCC, Manassas, VA, USA). The human breast cancer (BC) cell lines BT549, BT474 and T47D were maintained in RPMI 1640 containing 10% (v/v) fetal bovine serum (FBS, Gibco), 0.01 mg/mL insulin and 100 units/mL penicillin/streptomycin (HyClone). SKBR3, Hs578T, and BT20 human BC cell lines were cultured in DMEM medium with 10% (v/v) FBS and 100 units/mL penicillin/streptomycin. HCC1500, HCC1806, and HCC1937 human BC cell lines were cultured in RPMI 1640 medium supplement with 10% (v/v) FBS and 100 units/mL penicillin/streptomycin. MDA-MB-231 human BC cell line was cultured in DMEM/F12 (1: 1) medium with 10% (v/v) FBS and 100 units/mL penicillin/streptomycin. MDA-MB-468 human BC cell line was cultured in DMEM (high glucose) medium with 10% (v/v) FBS and 100 units/mL penicillin/streptomycin. MCF-7 human BC cell line was cultured in EMEM medium with 10% (v/v) FBS, 0.01 mg/mL insulin and 100 units/mL penicillin/streptomycin. […] All of the cells cultured in a humidified incubator at 37 °C and 5% CO2/95% air (v/v).

BT474 = experiment: cells; parameters: crystal violet staining viability/proliferation assay, IC50 (SPSS), LM-2I on breast cancer and normal breast epithelial lines; conditions: Homo sapiens, BT-474; mean of 3 repeats
Experimental: as §1

BT549 = experiment: cells; parameters: crystal violet staining viability/proliferation assay, IC50 (SPSS), LM-2I on breast cancer and normal breast epithelial lines; conditions: Homo sapiens, BT-549; mean of 3 repeats
Experimental: as §1

HCC1500 = experiment: cells; parameters: crystal violet staining viability/proliferation assay, IC50 (SPSS), LM-2I on breast cancer and normal breast epithelial lines; conditions: HCC1500; mean of 3 repeats
Experimental: as §1

HCC1806 = experiment: cells; parameters: crystal violet staining viability/proliferation assay, IC50 (SPSS), LM-2I on breast cancer and normal breast epithelial lines; conditions: Homo sapiens, HCC1806; mean of 3 repeats
Experimental: as §1

HCC1937 = experiment: cells; parameters: crystal violet staining viability/proliferation assay, IC50 (SPSS), LM-2I on breast cancer and normal breast epithelial lines; conditions: Homo sapiens, HCC1937; mean of 3 repeats
Experimental: as §1

HS578T = experiment: cells; parameters: crystal violet staining viability/proliferation assay, IC50 (SPSS), LM-2I on breast cancer and normal breast epithelial lines; conditions: Homo sapiens, Hs-578T; mean of 3 repeats
Experimental: as §1

MCF-7 = experiment: cells; parameters: crystal violet staining viability/proliferation assay, IC50 (SPSS), LM-2I on breast cancer and normal breast epithelial lines; conditions: Homo sapiens, MCF7; mean of 3 repeats
Experimental: as §1

MDA-MB-231 = experiment: cells; parameters: crystal violet staining viability/proliferation assay, IC50 (SPSS), LM-2I on breast cancer and normal breast epithelial lines; conditions: Homo sapiens, MDA-MB-231; mean of 3 repeats
Experimental: as §1

MDA-MB-468 = experiment: cells; parameters: crystal violet staining viability/proliferation assay, IC50 (SPSS), LM-2I on breast cancer and normal breast epithelial lines; conditions: Homo sapiens, MDA-MB-468; mean of 3 repeats
Experimental: as §1

SKBR3 = experiment: cells; parameters: crystal violet staining viability/proliferation assay, IC50 (SPSS), LM-2I on breast cancer and normal breast epithelial lines; conditions: Homo sapiens, SK-BR-3; mean of 3 repeats
Experimental: as §1

T47D = experiment: cells; parameters: crystal violet staining viability/proliferation assay, IC50 (SPSS), LM-2I on breast cancer and normal breast epithelial lines; conditions: Homo sapiens, T47D; mean of 3 repeats
Experimental: as §1

in vitro = experiment: in vitro; parameters: crystal violet staining viability/proliferation assay, IC50 (SPSS), LM-2I on breast cancer and normal breast epithelial lines; conditions: human, Mean; mean of 3 repeats; given as IC50
Experimental: (§2) Fig. 1 SPA and its derivative LM-2I inhibit breast cancer proliferation and growth. a Chemical structures of SPA (1). b Crystal violet assay for the effects of SPA on breast cancer cell proliferation. IC50 values were calculated with SPSS 18.0 (mean ± s.d., n = 3 biologically independent experiments). c Representative microscope images of colony formation for different breast cancer cell lines treated with SPA. Scale bars are 40 µM. d Chemical structures of LM-2I (2). e Crystal violet assay for the effects of LM-2I on breast cancer cell proliferation. IC50 values were calculated with SPSS 18.0 (mean ± s.d., n = 3 biologically independent experiments). f Representative microscope images of colony formation for different breast cancer cell lines treated with LM-2I. Scale bars are 40 µM. MDA-MB-231 cells were inoculated subcutaneously into the right flank of nu/nu female mice. When the average tumor size reached about 100 mm^3, mice were treated with ether vehicle, SPA (10 mg/kg/day) or LM-2I (5 mg/kg/day). Tumor sizes (g) and mouse body weight (i) were measured every 2 days. 28 days later, mice were sacrificed and tumors were dissected and weighted (h). Data represent mean ± s.d. (n = 8 mice per group). *P < 0.05, ***P < 0.001, NS: not significant (P > 0.05) from two-tailed unpaired Student’s t tests.Source data are provided as a Source Data file. […]

184B5 = experiment: in vitro; parameters: crystal violet staining viability/proliferation assay, IC50 (SPSS), LM-2I on breast cancer and normal breast epithelial lines; conditions: mean of 3 repeats; given as IC50; inhibitor
Experimental: as §2

[2] = target: T1, Argininosuccinate synthase (ASS1); experiment: covalent labelling kinetics by streptavidin-HRP blot (kinact […] min^-1); pull-down from MCF-7 lysate; format: binding; conditions: read-out: Ki
[3] = target: T1, Argininosuccinate synthase (ASS1); experiment: SPR (BIAcore X100); also LC-MS/MS of Cys97 adduct, competition with Biotin-SPA, enzyme activation (AC50 […]); format: binding; remark: listed apart in the source

Work on CC[C@H]1CCC[C@H](O[C@H]2CC[C@H](N(C)CC(O)CN3CCNCC3)[C@@H](C)O2)[C@@H](C)C(=O)C2=C[C@@H]3[C@@H](C=C[C@@H]4C[C@@H](O[C@@H]5O[C@@H](C)[C@H](OC)[C@@H](OC)[C@H]5OC)C[C@@H]34)[C@@H]2CC(=O)O1 (some centres unmarked) [compound 2, LM-2I] yielded a Kd [1] of 0.194 µM, an IC50 (BT20) of 8.22 µM and an IC50 (BT474) of 6.2 µM. For the same compound, the IC50 (BT549) was 1.51 µM, the IC50 (HCC1500) was 10 µM and the IC50 (HCC1806) was 2.13 µM. It also gave an IC50 (HCC1937) of 7.64 µM, an IC50 (HS578T) of 1.76 µM and an IC50 (MCF-7) of 5.94 µM. It also gave an IC50 (MDA-MB-231) of 1.09 µM, an IC50 (MDA-MB-468) of 5.11 µM and an IC50 (SKBR3) of 5.12 µM. For the same compound, the IC50 (T47D) was 5.95 µM, the CC50 (in vitro) was 8.52 µM and the CC50 (184B5) was 7.89 µM.
For CC[C@H]1CCC[C@H](O[C@H]2CC[C@H](N(C)CCCCCCOC(=O)CCCC[C@@H]3SC[C@@H]4NC(=O)N[C@@H]43)[C@@H](C)O2)[C@@H](C)C(=O)C2=C[C@@H]3[C@@H](C=C[C@@H]4C[C@@H](O[C@@H]5O[C@@H](C)[C@H](OC)[C@@H](OC)[C@H]5OC)C[C@@H]34)[C@@H]2CC(=O)O1 [compound 4, Biotin-SPA], the KI (inactivation) [2] was 9.01 µM.
In the case of CC[C@H]1CCC[C@H](O[C@H]2CC[C@H](N(C)C)[C@@H](C)O2)[C@@H](C)C(=O)C2=C[C@@H]3[C@@H](C=C[C@@H]4C[C@@H](O[C@@H]5O[C@@H](C)[C@H](OC)[C@@H](OC)[C@H]5OC)C[C@@H]34)[C@@H]2CC(=O)O1 [compound 1, spinosyn A], the Kd [3] is reported as 0.358 µM.
